According to ChEMBL document CHEMBL1138245, “Discovery of N1-(6-chloroimidazo[2,1-b][1,3]thiazole-5-sulfonyl)tryptamine as a potent, selective, and orally active 5-HT(6) receptor agonist” (J Med Chem, 2007):

Key:
[1] = biological target: T1, 5-hydroxytryptamine receptor 6 (Homo sapiens, UniProt P50406); test: Displacement of [3H]LSD from human 5HT6 receptor expressed in HeLa cells; type: cell-based
[2] = biological target: T1, 5-hydroxytryptamine receptor 6; test: Agonist activity at human 5HT6 receptor expressed in HeLa cells assessed as cAMP production; type: functional, cell-based

T1 sequence (P50406 whole entry): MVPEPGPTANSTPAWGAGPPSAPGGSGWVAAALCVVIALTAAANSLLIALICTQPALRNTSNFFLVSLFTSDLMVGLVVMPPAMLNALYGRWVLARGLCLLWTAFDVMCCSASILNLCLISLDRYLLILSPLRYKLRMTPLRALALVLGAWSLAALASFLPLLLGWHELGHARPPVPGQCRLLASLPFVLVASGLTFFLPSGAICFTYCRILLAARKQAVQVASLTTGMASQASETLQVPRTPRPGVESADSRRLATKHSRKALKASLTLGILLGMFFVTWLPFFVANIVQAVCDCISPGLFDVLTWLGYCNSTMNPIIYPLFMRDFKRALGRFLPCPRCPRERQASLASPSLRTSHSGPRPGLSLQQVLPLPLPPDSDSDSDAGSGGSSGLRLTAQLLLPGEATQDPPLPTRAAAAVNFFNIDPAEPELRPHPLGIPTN

Compound | Ki [1] | EC50 [2] | Emax [2]
NCCc1cn(S(=O)(=O)c2ccccc2I)c2ccccc12 | 16 nM | – | –
NCCc1cn(S(=O)(=O)c2ccc(Cl)s2)c2ccccc12 | 6 nM | 181 nM | 100%
